These results are taken from ChEMBL document CHEMBL2424637, “Nucleophilic substitution reactions of 1,4-naphthoquinone and biologic properties of novel S-, S,S-, N-, and N,S-substituted 1,4-naphthoquinone derivatives” (2013).

Type in all cases: functional
In assay [1] the test system is Mycobacterium. The assay can be described thus: Antibacterial activity against Mycobacterium luteum B-917 at 0.5% after 24 hrs by agar disk diffusion technique. (A growth-free zone around the sample is the usual read-out of agar diffusion tests.)
Assay [2] relates to Escherichia coli. The assay can be described thus: Antibacterial activity against Escherichia coli B-906 at 0.1% after 24 hrs by agar disk diffusion technique.
The test system of assay [3] is Mycobacterium. Briefly: Antibacterial activity against Mycobacterium luteum B-917 after 24 to 72 hrs by serial dilution technique.
Assay [4] relates to Aspergillus niger. Briefly: Antifungal activity against Aspergillus niger F-1119 after 24 to 72 hrs by serial dilution technique.
The test system of assay [5] is Escherichia coli. Briefly: Antibacterial activity against Escherichia coli B-906 after 24 to 72 hrs by serial dilution technique.
Assay [6] relates to Escherichia coli. The assay can be described thus: Antibacterial activity against Escherichia coli B-906 at 0.5% after 24 hrs by agar disk diffusion technique.
For assay [7], the system named is Aspergillus niger. The assay can be described thus: Antifungal activity against Aspergillus niger F-1119 at 0.1% after 48 to 72 hrs by agar disk diffusion technique.
The subject of assay [8] is Yamadazyma tenuis. The assay can be described thus: Antifungal activity against Candida tenuis VKM Y-70 at 0.1% after 48 to 72 hrs by agar disk diffusion technique.
Assay [9] relates to Staphylococcus aureus. Briefly: Antibacterial activity against Staphylococcus aureus 209-P at 0.1% after 24 hrs by agar disk diffusion technique.
The subject of assay [10] is Aspergillus niger. Briefly: Antifungal activity against Aspergillus niger F-1119 at 0.5% after 48 to 72 hrs by agar disk diffusion technique.
In assay [11] the test system is Yamadazyma tenuis. Briefly: Antifungal activity against Candida tenuis VKM Y-70 after 24 to 72 hrs by serial dilution technique.
Assay [12] has as its system Staphylococcus aureus. Briefly: Antibacterial activity against Staphylococcus aureus 209-P at 0.5% after 24 hrs by agar disk diffusion technique.
The test system of assay [13] is Mycobacterium. The assay can be described thus: Antibacterial activity against Mycobacterium luteum B-917 at 0.1% after 24 hrs by agar disk diffusion technique.
The test system of assay [14] is Yamadazyma tenuis. Briefly: Antifungal activity against Candida tenuis VKM Y-70 at 0.5% after 48 to 72 hrs by agar disk diffusion technique.
The test system of assay [15] is Staphylococcus aureus. The assay can be described thus: Antibacterial activity against Staphylococcus aureus 209-P after 24 to 72 hrs by serial dilution technique.

The structures appear in SMILES notation. Values after ≈ are worked out from the molar mass of the structure shown. Active and inactive are the calls of the source.

A word on the MIC: it is the smallest concentration in the dilution series that meets the test's criterion for growth inhibition. In the case of `O=C1C(Cl)=C(N2CCN(CCO)CC2)C(=O)c2ccccc21`, the “diameter of the inhibition zone (DIZ)” value was 28.7 mm in assay [1]; 6 mm in assay [2]; 8 mm in assay [6]; 0 mm in assay [7]; 0 mm in [8]; 11.4 mm in assay [9]. Moreover, the “diameter of the inhibition zone (DIZ)” value in [10] worked out at 0 mm; in [12], 20.7 mm; in assay [13], 16 mm; in assay [14] it was 0 mm. For the same molecule, the minimal inhibitory concentration (MIC) in assay [3] is 31.2 µg/mL (≈ 97.3 µM); in assay [4] it was 125 µg/mL (≈ 390 µM); in assay [5], 500 µg/mL (≈ 1560 µM); in [11], 125 µg/mL (≈ 390 µM); in [15], 62.5 µg/mL (≈ 195 µM).
For the molecule `CC1CCC(C(C)(C)SC2=C(SC(C)(C)C3CCC(C)CC3=O)C(=O)c3ccccc3C2=O)C(=O)C1` (stereo not given), the “diameter of the inhibition zone (DIZ)” value in [1], in assay [2], in assay [6], in assay [7], in assay [8] and in [9] was 0 mm in each case. Further, the “diameter of the inhibition zone (DIZ)” value in [10] is 6 mm; in [12], 0 mm; in assay [13], 0 mm; in assay [14] it was 7.4 mm. In addition, the MIC in assay [3] and in assay [4] was 500 µg/mL (≈ 949 µM) in each case. The MIC result in assay [5], in assay [11] and in assay [15] was “inactive” throughout.
In the case of `CCCCOC(=O)CCSC1=C(Sc2c(Cl)c(Cl)c(Cl)c(Cl)c2Cl)C(=O)c2ccccc2C1=O`, the “diameter of the inhibition zone (DIZ)” value in [1], in assay [2], in assay [6], in [7], in assay [8] and in [9] was 0 mm in each case. The “diameter of the inhibition zone (DIZ)” value in [10] stood at 6 mm; in [12] it was 0 mm; in [13], 0 mm; in assay [14], 0 mm. In addition, the MIC in assay [3] turned out to be 125 µg/mL (≈ 209 µM). Besides, the MIC entry in assay [4], in assay [5], in assay [11] and in assay [15] was “inactive” in each case.
`COC(=O)CCSC1=C(Sc2c(Cl)c(Cl)c(Cl)c(Cl)c2Cl)C(=O)c2ccccc2C1=O`: the “diameter of the inhibition zone (DIZ)” value is listed as 10.7 mm in [1]; 0 mm in assay [2]; 0 mm in [6]; 0 mm in assay [7]; 0 mm in [8]; 0 mm in [9]. Besides, the “diameter of the inhibition zone (DIZ)” value came to 0 mm in assay [10], 0 mm in assay [12], 6 mm in assay [13] and 0 mm in assay [14]. Moreover, the minimum inhibitory concentration (MIC) in assay [3] was determined as 15.6 µg/mL (≈ 28 µM); in [11] it was 62.5 µg/mL (≈ 112 µM); in [15] it was 250 µg/mL (≈ 449 µM). Also, the MIC result in [4] and in [5] was “inactive” each time.
Consider `O=C1C(Sc2cc(Cl)ccc2Cl)=C(Sc2cc(Cl)ccc2Cl)C(=O)c2ccccc21`, for which the “diameter of the inhibition zone (DIZ)” value in assay [1], in [2], in assay [6], in [7], in [8] and in assay [9] was 0 mm each time. For the same molecule, the “diameter of the inhibition zone (DIZ)” value in [10] worked out at 0 mm; in assay [12] it was 0 mm; in assay [13], 0 mm; in [14] it was 7 mm. For the same molecule, the MIC entry in assay [3], in assay [4], in assay [5] and in [15] was “inactive” throughout. Also, in [11], inhibition of growth (MIC) required 500 µg/mL (≈ 976 µM).
On to `CCOC1=C(N(CC)Cc2ccncc2)C(=O)c2ccccc2C1=O`, for which the “diameter of the inhibition zone (DIZ)” value in assay [1] is 7.4 mm; in [2] it was 0 mm; in assay [6] it was 0 mm; in [7], 8 mm; in [8], 12.4 mm; in [9] it was 0 mm. In addition, the “diameter of the inhibition zone (DIZ)” value in assay [10] is 19 mm; in assay [12], 0 mm; in assay [13] it was 0 mm; in assay [14], 20 mm. Besides, the minimum inhibitory concentration (MIC) is 125 µg/mL (≈ 372 µM) in assay [3], 31.2 µg/mL (≈ 92.7 µM) in assay [4], 62.5 µg/mL (≈ 186 µM) in assay [11] and 62.5 µg/mL (≈ 186 µM) in assay [15]. Also, in assay [5], the MIC entry is “inactive”.
In the case of `O=C1C(Cl)=C(N2CCN(c3ccc([N+](=O)[O-])cc3)CC2)C(=O)c2ccccc21`, the “diameter of the inhibition zone (DIZ)” value in assay [1] is on record as 0 mm; in assay [2], 0 mm; in assay [6], 0 mm; in assay [7], 0 mm; in [8] it was 8.5 mm; in assay [9] it was 0 mm. For the same molecule, the “diameter of the inhibition zone (DIZ)” value came out at 13.7 mm in [10], 0 mm in [12], 0 mm in assay [13] and 15.7 mm in [14]. Moreover, the MIC result in [3], in assay [5] and in assay [15] was “inactive” each time. Besides, the MIC in assay [4] and in [11] was 31.2 µg/mL (≈ 78.4 µM) throughout.
Consider `COc1ccc(CSC2=C(SCc3ccc(OC)cc3)C(=O)c3ccccc3C2=O)cc1`, for which the “diameter of the inhibition zone (DIZ)” value in [1] was 7 mm; in assay [2] it was 0 mm; in assay [6], 0 mm; in assay [7], 0 mm; in assay [8] it was 7.4 mm; in assay [9], 0 mm. Also, the “diameter of the inhibition zone (DIZ)” value in assay [10] is listed as 7.4 mm; in assay [12], 0 mm; in assay [13] it was 0 mm; in assay [14] it was 11.7 mm. Besides, the MIC entry in assay [3], in assay [5] and in assay [15] was “inactive” throughout. Further, the MIC turned out to be 250 µg/mL (≈ 540 µM) in assay [4] and 62.5 µg/mL (≈ 135 µM) in assay [11].
